Settings in all cases: ATCC 35743, 10 min
The test system of assay [1] is Mycobacterium tuberculosis variant bovis BCG. The assay is described as follows: Antitubercular activity against Mycobacterium bovis BCG ATCC 35743 at 3 ug/ml after 10 mins by NR assay. It counts as functional.
For assay [2] the test system is unchanged. Kind of assay: Antitubercular activity against Mycobacterium bovis BCG ATCC 35743 after 10 mins by NR assay. The assay is classed as functional, organism-based.
The test system is the same in assay [3]. Kind of assay: Antitubercular activity against Mycobacterium bovis BCG ATCC 35743 at 10 ug/ml after 10 mins by NR assay. It counts as functional.
Assay [4] shares this test system. Kind of assay: Antitubercular activity against Mycobacterium bovis BCG ATCC 35743 at 30 ug/ml after 10 mins by NR assay. It counts as functional.

Values after ≈ are worked out from the molar mass of the structure shown.

On to `O=C1CSc2ccccc2N1Cc1cn(-c2cccc([N+](=O)[O-])c2)nn1`, for which, in assay [1], testing at 3 µg/mL gave an inhibition of 39.3%. Besides, in assay [2], the IC50 (usually the concentration that inhibits the measured activity by half) was greater than 30 µg/mL and the MIC (commonly the lowest concentration that inhibits growth of the organism) was greater than 30 µg/mL. Moreover, in assay [3], the inhibition (in general, the percentage by which the read-out fell short of the control) at 10 µg/mL stood at 31.3%. The compound further returned an inhibition at 30 µg/mL in assay [4] of 26.6%.

The compound `O=C1CSc2ccccc2N1Cc1cn(Cc2cccc([N+](=O)[O-])c2)nn1` came in with an inhibition at 3 µg/mL in assay [1] of 36.1%. In assay [2], this compound returned an IC50 of 6.89 µg/mL (≈ 18.1 µM) and a minimal inhibitory concentration (MIC) greater than 30 µg/mL. In assay [3], this compound showed an inhibition at 10 µg/mL of 62.2%. In addition, the inhibition at 30 µg/mL in assay [4] turned out to be 88.5%.

In assay [1], `O=C1CSc2ccccc2N1Cc1cn(Cc2ccc([N+](=O)[O-])cc2)nn1` displayed an inhibition at 3 µg/mL of 28.3%. Moreover, in assay [2], the concentration for half-maximal inhibition (IC50) amounted to 7.89 µg/mL (≈ 20.7 µM) and 29.4 µg/mL (≈ 77 µM) was the least that counted as inhibitory (MIC). Further, in assay [3], 10 µg/mL produced 59.2% inhibition. Besides, 30 µg/mL produced 91.1% inhibition in assay [4].

Turning to `O=C1CSc2ccccc2N1Cc1cn(Cc2ccc(F)cc2)nn1`, in assay [1], at 3 µg/mL the inhibition was 40.6%. In assay [2], this compound returned an IC50 of 8.25 µg/mL (≈ 23.3 µM) and an MIC of 27.5 µg/mL (≈ 77.6 µM). This compound also gave an inhibition at 10 µg/mL in assay [3] of 52.9%. This compound came in with an inhibition at 30 µg/mL in assay [4] of 95.3%.

Take `O=C1CSc2ccccc2N1Cc1cn(Cc2ccc(Cl)cc2)nn1`: the inhibition at 3 µg/mL in assay [1] was 66.1%. Besides, in assay [2], the half-maximal inhibitory concentration (IC50) is 8.55 µg/mL (≈ 23.1 µM) and the minimum inhibitory concentration (MIC) was greater than 30 µg/mL. In assay [3], this compound gave an inhibition at 10 µg/mL of 55.2%. Further, in assay [4], the inhibition at 30 µg/mL amounted to 58.1%.

In turn, `O=C1CSc2ccccc2N1Cc1cn(-c2ccc([N+](=O)[O-])cc2)nn1` displayed an inhibition at 3 µg/mL in assay [1] of 15.9%. Moreover, in assay [2], the 50% inhibitory concentration (IC50) was greater than 30 µg/mL and the minimal inhibitory concentration (MIC) was greater than 30 µg/mL. In addition, the inhibition at 10 µg/mL in assay [3] is 30.7%. Besides, in assay [4], the inhibition at 30 µg/mL amounted to 33.1%.

In assay [1], `O=C1CSc2ccccc2N1Cc1cn(Cc2ccc(Br)cc2)nn1` returned an inhibition at 3 µg/mL of 58.8%. Further, in assay [2], the IC50 was greater than 30 µg/mL and the MIC was greater than 30 µg/mL. The compound also showed an inhibition at 10 µg/mL in assay [3] of 35.3%. The compound further yielded an inhibition at 30 µg/mL in assay [4] of 43.9%.

In turn, `O=C1CSc2ccccc2N1Cc1cn(Cc2ccccc2)nn1` registered an inhibition at 3 µg/mL in assay [1] of 1.1%. In assay [2], this compound returned an IC50 of 19.8 µg/mL (≈ 58.7 µM) and a minimum inhibitory concentration (MIC) greater than 30 µg/mL. Moreover, at 10 µg/mL the inhibition in assay [3] was 26.8%. Moreover, the inhibition at 30 µg/mL in assay [4] stood at 74.3%.

In the case of `O=C1CSc2ccccc2N1Cc1cn(Cc2cccc(Cl)c2)nn1`, in assay [1], the inhibition at 3 µg/mL was found to be 3.3%. In assay [2], this compound displayed an IC50 of 18.6 µg/mL (≈ 50.1 µM) and an MIC of 28.4 µg/mL (≈ 76.7 µM). In addition, in assay [3], the inhibition at 10 µg/mL came out at 16.4%. Besides, at 30 µg/mL the inhibition in assay [4] was 95.5%.

The compound `O=C1CSc2ccccc2N1Cc1cn(Cc2ccccc2Cl)nn1` had an inhibition at 3 µg/mL in assay [1] of 32%. In assay [2], this compound returned an IC50 greater than 30 µg/mL and a minimum inhibitory concentration (MIC) greater than 30 µg/mL. In assay [3], this compound registered an inhibition at 10 µg/mL of 80.2%. At 30 µg/mL the inhibition in assay [4] was 58%.

Take `NNC(=O)c1ccncc1` [ISONIAZID]: in assay [2], the half-maximal inhibitory concentration (IC50) turned out to be 0.0023 µg/mL (≈ 0.0168 µM) and inhibition of growth (MIC) required 0.045 µg/mL (≈ 0.328 µM).

In assay [2], `CO[C@H]1/C=C/O[C@@]2(C)Oc3c(C)c(O)c4c(O)c(c(/C=N/N5CCN(C)CC5)c(O)c4c3C2=O)NC(=O)/C(C)=C\C=C\[C@H](C)[C@H](O)[C@@H](C)[C@@H](O)[C@@H](C)[C@H](OC(C)=O)[C@@H]1C` [RIFAMPIN] yielded an IC50 of 0.0016 µg/mL (≈ 0.00194 µM) and an MIC of 0.041 µg/mL (≈ 0.0498 µM).

The values above are taken from ChEMBL document CHEMBL3763138, “Synthesis and bioactivity of novel triazole incorporated benzothiazinone derivatives as antitubercular and antioxidant agent” (Bioorg Med Chem Lett, 2016).
